According to PubChem BioAssay (NCI):
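Method: 48-hour compound exposure of cells in 96-well plates, five concentrations, linear interpolation of endpoints. The concentration for full growth arrest is given as TGI.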

Legend:
Assay in all cases: NCI anticancer screen, dose series, 48 h
786-0 renal = test system: 786-0 renal
ACHN renal = test system: ACHN renal
CCRF-CEM leukemia = test system: CCRF-CEM leukemia
HCT-15 colon = test system: HCT-15 colon
HOP-62 NSCLC = test system: HOP-62 NSCLC
HS 578T breast = test system: HS 578T breast
IGROV1 ovarian = test system: IGROV1 ovarian
MDA-MB-435 = test system: MDA-MB-435
NCI-H460 lung = test system: NCI-H460 lung
OVCAR-5 ovarian = test system: OVCAR-5 ovarian
OVCAR-8 ovarian = test system: OVCAR-8 ovarian
SK-MEL-28 melanoma = test system: SK-MEL-28 melanoma
SK-OV-3 ovarian = test system: SK-OV-3 ovarian
SNB-75 CNS = test system: SNB-75 CNS
SR leukemia = test system: SR leukemia

COc1cccc(CCn2c(N)c(C#N)c3ccc([N+](=O)[O-])cc3c2=O)c1
TGI (786-0 renal): > 46.4 µM
TGI (ACHN renal): > 46.4 µM
TGI (CCRF-CEM leukemia): > 31.6 µM
TGI (HCT-15 colon): > 31.6 µM
TGI (HOP-62 NSCLC): > 31.6 µM
TGI (HS 578T breast): > 46.4 µM
TGI (IGROV1 ovarian): > 31.6 µM
TGI (MDA-MB-435): > 100 µM
TGI (NCI-H460 lung): > 46.4 µM
TGI (OVCAR-5 ovarian): > 31.6 µM
TGI (OVCAR-8 ovarian): > 46.4 µM
TGI (SK-MEL-28 melanoma): > 100 µM
TGI (SK-OV-3 ovarian): > 31.6 µM
TGI (SNB-75 CNS): > 46.4 µM
TGI (SR leukemia): 0.922 µM
